Key:
[1] = test system: cullin neddylation in Cal27 or FaDu cells; assay: Immunoblotting of cullin neddylation; type: cell-based, human; details: 50 nM pevonedistat, 24 or 48 hours
Method: HNSCC cells were lysed using radio-immunoprecipitation assay (RIPA) lysis buffer (50 mM Tris, pH 8.0; 150 mM NaCl, 1% NP-40; 0.5% sodium deoxycolate; 0.1% SDS; 1 mM Benzamidin-HCl; 0.5 μg/ml Leupeptin; 0.5 μg/ml Aprotinin; 1 μg/ml pepstatin; 20 mM NaF; 20 mM Na3VO4). Equal amounts of protein were electrophoretically separated in a polyacrylamide 8-12% gel (Bio-Rad Laboratories, Inc., Hercules, Calif., United States of America), trans-blotted to a nitrocellulose membrane, and incubated with primary antibodies for one hour at room temperature or overnight at 4° C. The immunoblot signals were detected by enhanced chemiluminescence (EMD Millipore Corporation, Billerica, Mass., United States of America).

[2] = test system: PIG3V or PIG1 immortalized but not malignant melanocytic cell lines; assay: Proliferation of immortalized non-malignant melanocytic cell lines; type: cell-based; details: Homo sapiens
FaDu cells = assay: Rereplication by propidium iodide staining and FACS (HNSCC); type: cell-based, human
Method: (§1) The effect of pevonedistat treatment or CDT2, geminin, or EMI1 knockdown on the cell cycle (and induction of DNA rereplication) was assessed by flow cytometry with propidium iodide (PI) staining. Cells were harvested at 72 or 96 hours post-treatment with pevonedistat or post-transfection, respectively. Cells were collected, washed with PBS, and resuspended in ethanol (75%). Cells were subsequently treated with 20 μg of DNase-free RNase and stained with PI following the manufacturer's protocol. FACSCAN™ (Becton, Dickinson and Company, Franklin Lakes, N.J., United States of America) was used to analyze the samples and G0-G1, S, and G2-M fractions were segmented. Subsequent analysis using FLOWJO® (FLOWJO, LLC, Ashland, Oreg., United States of America) and ModFit (Verity Software House, Topsham, Me., United States of America) software was used to determine apoptotic and re-replicating fractions. Where indicated, Cal27 and FaDu cells were treated with pevonedistat for 48 hours and pulsed with BrdU (10 nM) for 1 hour in the dark prior to harvesting. Cells were washed with PBS and staining solution before fixation and permeabilization steps according to the manufacturer's protocol. Cells were subsequently stained with anti-BrdU antibody solution for 20 minutes at room temperature, washed, and stained with 7-AAD for 30 minutes at 4° C. Cells were resuspended in 1 ml of staining buffer and stored at 4° C. overnight before analysis. Sampled were analyzed on a FACSCAN™ (Becton, Dickinson and Company, Franklin Lakes, N.J., United States of America), and different fractions of BrdU positive cells were determined using FLOWJO® (FLOWJO, LLC, Ashland, Oreg., United States of America) and ModFit (Verity Software House, Topsham, Me., United States of America) software.

Cal27 or FaDu cells = assay: FACS analysis of HNSCC cells (line not given); type: cell-based, human
Method: as §1, with “Cells were harvested at 72 or 96 hours post-treatment with pevonedistat or post-transfection, respectively.” left out, “Cells were washed with PBS and staining solution before fixation and permeabilization steps according to the manufacturer's protocol. Cells were subsequently stained with anti-BrdU antibody solution for 20 minutes at room temperature, washed, and stained with 7-AAD for 30 minutes at 4° C. Cells were resuspended in 1 ml of staining buffer and stored at 4° C. overnight before analysis.” left out

For `NS(=O)(=O)OCC1CC(n2ccc3c(NC4CCc5ccccc54)ncnc32)CC1O` [pevonedistat, ((1S,2S,4R)-4-(4-((1S)-2,3-Dihydro-H-inden-1-ylamino)-7H-pyrrolo(2,3-d)pyrimidin-7-yl)-2-hydroxycyclopentyl)methyl sulphamate], the cullin neddylation [1] was “inhibited cullin neddylation”, the IC50 [2] was over 500 nM and the cells undergoing rereplication (FaDu cells; 40 nM pevonedistat 48 hours plus 2 Gy at the 24 hour time point) was 42.2%. For the same compound, the cells undergoing rereplication (FaDu cells; 40 nM pevonedistat for 48 hours) was 21.6%, the “cells exhibiting >4N DNA content” value (FaDu cells; 100 nM pevonedistat, PI staining) was 60.4% and the “cells exhibiting sub-G1 DNA content” value (Cal27 or FaDu cells; 72 hours post-treatment) was 5-10%. The “concentration at which rereplication was also observed” value (Cal27 or FaDu cells; as early as 24 hours following treatment) was 40 nM.
